Laboratory results as given in patent publication US8313934B2, “Reduction of the toxic effect of impurities from raw materials by extractive fermentation” (LS9, Inc., priority 2007, dated 2012).

How the values were obtained:
LS9-ID1 [1] = test: Extractive fermentation with toxin, with or without hydrophobic solvent: cell growth (OD600); assay type: cell-based, E. coli; conditions: for % Growth With C1:C12: methyl laureate as solvent; for % Growth With Hexadecane: hexadecane as solvent; for % Growth With Eicosadecene: eicosadecene as solvent; for % Growth With Biodiesel: commercial biodiesel as solvent
Procedure: Two sets of duplicate flasks were prepared with different concentrations of the toxin to be tested. One set served as the control, which included the toxin without the extractant, the hydrophobic solvent. In the second set, the extractant was added in a ratio of 1 volume of solvent per 3 volumes of fermentation broth. The flasks were then inoculated and incubated at 37° C. in agitated shakers. When the OD 600 reached a value of 1, the cultures were induced by the addition of 1 mM IPTG and 20 ml/L methanol. Cell growth and production of fatty acids methyl esters (FAME) was measured at 24 hours. In cultures without hydrophobic solvents (control), OD was measured directly in the fermentation broth. […] The OD was measured in this suspension.
(§1) To analyze FAME production, 0.5 ml of broth was well mixed with 0.5 ml of ethylacetate. The organic phase was analyzed by gas chromatography. In the samples with solvents, additional dilutions were applied. All the toxins were tested with ethyl oleate (C2:C18 ester, or C2:C18) as a solvent representative of a biodiesel. Growth and FAME production are reported as percentage of the control condition (no toxin added). Each result is the average of duplicate experiments.
The solvents methyl laureate (C1:C12 ester, or C1:C12), hexadecane (an alkane), eicosadecene (an alkene) and commercial biodiesel were tested.

E. coli = conditions: minimal inhibitory concentration that completely inhibits growth, as reported in the literature; cited from earlier work
LS9-ID1 [2] = test: Solvent pretreatment of toxin-spiked media before fermentation: cell growth; assay type: cell-based, E. coli; conditions: Table 12, toxin 1.5 g/L; for % Growth With Pretreatment: media extracted with methyl laureate 1:3 vol:vol, 37° C., 60 minutes, before inoculation; for % Growth No solvent: untreated media
Excerpt: The raw materials can be treated to remove the toxin prior to the fermentation. For this purpose it will be possible to use the bioproduct after the initial steps of purification (centrifugal separation for example) but prior to any polishing or finishing step. The sugar containing raw material can be placed in contact with the solvent in a batch or in a continuous counter current mode. After extraction, the raw material (aqueous phase) can be separated from the solvent by decantation or centrifugation.
Tests were performed similarly to that described in the above Examples. Fermentation media was prepared and spiked with the desired concentration of the toxin. Methyl laureate was used as a solvent representative of biodiesel. It was added to the fermentation media in a 1:3 vol:vol ratio. Solvent and broth were thoroughly mixed at 37° C. for 60 minutes. The aqueous layer was decanted in a separatory funnel and collected. The resulting media was then inoculated with LS9-ID1 and growth was compared against similar media containing the toxin but which had not been treated.

LS9-ID1 [3] = test: Effect of common toxins on growth of the production strain (shake flasks, OD); assay type: cell-based, E. coli; conditions: for % Inhibition for LS9-ID1: toxin added at the reported MIC, growth by OD vs control without toxin
Procedure: A culture of a genetically engineered strain of E. coli, LS9-ID1, was transferred from a frozen stock and incubated in Luria-Bertani broth for approximately three hours. The culture was transferred to a defined mineral medium commonly used for E. coli, M9, buffered and supplemented with thiamine and trace minerals. The culture was further incubated and used to inoculate the same fermentation media with 50 g/L of carbohydrate (glucose, fructose, some pentoses).
The toxicity towards microbial strains of many of the compounds in hemicelluloses and cellulose hydrolysates has been examined individually. In the case of E. coli, the toxicity is related to the hydrophobicity of the toxin. The effects of several of these compounds on the growth of certain microbial strains were evaluated. The tests were done in shake flasks by following a protocol similar to that described in example 1, above, but without the induction and the addition of alcohols.
Other concentrations were also tested to determine the range where the effect was observed. The inhibition level was reported as the ratio between growth in the absence of the toxin (control) minus growth in the presence of the toxin and growth in the control.

LS9-ID1 [4] = test: Extractive fermentation with toxin, with or without hydrophobic solvent: FAME production (GC); assay type: cell-based, E. coli; conditions: 24 h, % of no-toxin control; for % FAME titer With C2:C18: ethyl oleate 1:3
Procedure: The production of fatty acid methyl and ethyl esters was analyzed by gas chromatography with flame ionization detector (GC-FID). The samples from fermentation broth were extracted with ethyl acetate in a ratio of 1:1 vol/vol. After strong vortexing, the samples were centrifuged and the organic phase was analyzed by gas chromatography (GC). The analysis conditions were as follows: instrument: Trace GC Ultra, Thermo Electron Corporation with Flame ionization detector (FID) detector; column: DB-1 (1% diphenyl siloxane; 99% dimethyl siloxane) CO1 UFM 1/0.1/5 01 DET from Thermo Electron Corporation, phase pH 5, FT: 0.4 μm, length 5 m, id: 0.1 mm; inlet conditions: 250° C. splitless, 3.8 min 1/25 split method used depending upon sample concentration with split flow of 75 ml/min; carrier gas, flow rate: Helium, 3.0 ml/min; block temperature: 330° C.; oven temperature: 0.5 minute hold at 50° C.; 100° C./minute to 330° C., 0.5 minute hold at 330° C.; detector temperature: 300° C.; injection volume: 2 μL; run time/flow rate: 6.3 min/3.0 ml/min (splitless method), 3.8 min/1.5 ml/min (split 1/25 method), 3.04 min/1.2 ml/min (split 1/50 method).
To determine the ability to perform extractive fermentations using products generated by the engineered strain of E. coli, LS9-ID1, to improve the performance of the fermentation in the presence of toxins, the fermentations were performed using a protocol similar to that described in example 1, above. Two sets of duplicate flasks were prepared with different concentrations of the toxin to be tested. One set served as the control, which included the toxin without the extractant, the hydrophobic solvent. In the second set, the extractant was added in a ratio of 1 volume of solvent per 3 volumes of fermentation broth. The flasks were then inoculated and incubated at 37° C. in agitated shakers. When the OD 600 reached a value of 1, the cultures were induced by the addition of 1 mM IPTG and 20 ml/L methanol. Cell growth and production of fatty acids methyl esters (FAME) was measured at 24 hours. In cultures without hydrophobic solvents (control), OD was measured directly in the fermentation broth. In flasks with solvent there was interference in OD measurement, and to eliminate this problem, the broth was centrifuged and the cell pellet was resuspended in the same volume of distilled water. The OD was measured in this suspension.
as §1

[5] = toxin 1.5 g/L, ethyl oleate 1:3 vol solvent:broth, 24 h, % of no-toxin control
[6] = toxin 1.5 g/L, 24 h, % of no-toxin control (Tables 3-7)
[7] = toxin 3.0 g/L, ethyl oleate 1:3, 24 h, % of no-toxin control
[8] = toxin 3.0 g/L, 24 h, % of no-toxin control (Tables 3-7)

SMILES | % Growth With Hexadecane (LS9-ID1 [1]; Table 9, toxin 1.5 g/L) | % Growth No solvent (LS9-ID1 [1]; Table 9, toxin 1.5 g/L) | % Growth With Eicosadecene (LS9-ID1 [1]; Table 10, toxin 1.5 g/L) | % Growth No solvent (LS9-ID1 [1]; Table 10, toxin 1.5 g/L) | % Growth With Biodiesel (LS9-ID1 [1]; Table 11, toxin 1.5 g/L) | % Growth No solvent (LS9-ID1 [1]; Table 11, toxin 1.5 g/L) | % Growth With C2:C18 (LS9-ID1 [1]; [5]) | % Growth No solvent (LS9-ID1 [1]; [6]) | % Growth With C2:C18 (LS9-ID1 [1]; [7]) | % Growth No solvent (LS9-ID1 [1]; [8]) | Reported MIC (E. coli) | % Growth With Pretreatment (LS9-ID1 [2]) | % Growth No solvent (LS9-ID1 [2]) | % of Growth inhibition (LS9-ID1 [3]; toxin 1.00 g/L) | % of Growth inhibition (LS9-ID1 [3]; toxin 1.50 g/L) | % Inhibition for LS9-ID1 (LS9-ID1 [3]) | % FAME titer With C2:C18 (LS9-ID1 [4]; toxin 1.5 g/L) | % FAME titer No solvent (LS9-ID1 [4]; toxin 1.5 g/L) | % FAME titer With C2:C18 (LS9-ID1 [4]; toxin 3.0 g/L) | % FAME titer No solvent (LS9-ID1 [4]; toxin 3.0 g/L) | other results
O=Cc1ccco1 [Furfural] | 38.5% | 17.7% | 56.7% | 33.3% | 49.7% | 33.3% | 71.9% | 40.0% | 53.6% | 21.5% | 3500 µg/mL | 69.6% | 33.3% | 0% | 60.0% | 100% | 72.7% | 35.5% | 43.2% | 4.5% | % Growth With C1:C12 (LS9-ID1 [1]; Table 8, toxin 3.0 g/L): 16.7%; % Growth No solvent (LS9-ID1 [1]; Table 8, toxin 3.0 g/L): 6.1%; % of Growth inhibition (LS9-ID1 [3]; toxin 3.00 g/L): 18.5%
O=Cc1ccc(O)cc1 [4-hydroxybenzaldehyde] | 53.8% | 6.2% | 11.2% | 9.6% | – | – | – | – | – | – | 1250 µg/mL | – | – | – | – | 100% | – | – | – | – | % Growth With C1:C12 (LS9-ID1 [1]; Table 8, toxin 1.5 g/L): 33.0%; % Growth No solvent (LS9-ID1 [1]; Table 8, toxin 1.5 g/L): 20.2%; % Growth With C2:C18 (LS9-ID1 [1]; toxin 0.63 g/L, ethyl oleate 1:3, 24 h, % of no-toxin control): 68.0%; % Growth No solvent (LS9-ID1 [1]; toxin 0.63 g/L, 24 h, % of no-toxin control): 70.0%; % Growth With C2:C18 (LS9-ID1 [1]; toxin 1.25 g/L, ethyl oleate 1:3, 24 h, % of no-toxin control): 60.0%; % Growth No solvent (LS9-ID1 [1]; toxin 1.25 g/L, 24 h, % of no-toxin control): 45.0%; % FAME titer With C2:C18 (LS9-ID1 [4]; toxin 0.63 g/L): 72.6%; % FAME titer No solvent (LS9-ID1 [4]; toxin 0.63 g/L): 54.3%; % FAME titer With C2:C18 (LS9-ID1 [4]; toxin 1.25 g/L): 31.8%; % FAME titer No solvent (LS9-ID1 [4]; toxin 1.25 g/L): 18.1%
COc1ccccc1O [Guaiacol] | 41.8% | 12.7% | 31.8% | 15.8% | – | – | 93.7% | 30.4% | 65.1% | 12.5% | 3000 µg/mL | – | – | 0% | 41.7% | 100% | 100.5% | 10.2% | 76.2% | 2.3% | % Growth With C1:C12 (LS9-ID1 [1]; Table 8, toxin 1.5 g/L): 88.6%; % Growth No solvent (LS9-ID1 [1]; Table 8, toxin 1.5 g/L): 18.3%; % of Growth inhibition (LS9-ID1 [3]; toxin 2.00 g/L): 83.3%; % of Growth inhibition (LS9-ID1 [3]; toxin 3.00 g/L): 100%
O=Cc1ccc(CO)o1 [5-Hydroxymethylfurfural] | – | – | – | – | – | – | – | – | – | – | 4000 µg/mL | – | – | – | – | 100% | – | – | – | – | % Growth With Hexadecane (LS9-ID1 [1]; Table 9, toxin 2.0 g/L): 57.1%; % Growth No solvent (LS9-ID1 [1]; Table 9, toxin 2.0 g/L): 39.8%; % Growth With Eicosadecene (LS9-ID1 [1]; Table 10, toxin 2.0 g/L): 55.3%; % Growth No solvent (LS9-ID1 [1]; Table 10, toxin 2.0 g/L): 51.8%; % Growth With C2:C18 (LS9-ID1 [1]; toxin 4.0 g/L, ethyl oleate 1:3, 24 h, % of no-toxin control): 20.9%; % Growth No solvent (LS9-ID1 [1]; toxin 4.0 g/L, 24 h, % of no-toxin control): 4.7%; % Growth With C2:C18 (LS9-ID1 [1]; toxin 8.0 g/L, ethyl oleate 1:3, 24 h, % of no-toxin control): 9.1%; % Growth No solvent (LS9-ID1 [1]; toxin 8.0 g/L, 24 h, % of no-toxin control): 2.2%
COc1cc(C=O)cc(OC)c1O [Syringaldehyde] | 40.7% | 19.5% | 48.2% | 8.8% | 39.2% | 8.8% | 41.0% | 34.4% | 14.8% | 6.6% | 2500 µg/mL | 83.3% | 8.8% | – | – | 100% | 94.8% | 16.2% | 92.7% | 2.0% | % Growth With Co-treatment (LS9-ID1 [2]; co-treatment): 61.2%
Cc1ccc(O)c(O)c1 [4-Methyl catechol] | – | – | – | – | – | – | – | – | – | – | 1500 µg/mL | – | – | – | – | 25% | – | – | – | – | –
